{
  "source": "patent US11998539B2",
  "about": "“Substituted aminoquinolones as DGKalpha inhibitors for immune activation” (Bayer Aktiengesellschaft, priority 2019, dated 2024)",
  "data": [
    {"target": "DGKα (Homo sapiens (Human), UniProt P23743)", "sequence (P23743 other isoform, or with tags, fused parts or gaps)": "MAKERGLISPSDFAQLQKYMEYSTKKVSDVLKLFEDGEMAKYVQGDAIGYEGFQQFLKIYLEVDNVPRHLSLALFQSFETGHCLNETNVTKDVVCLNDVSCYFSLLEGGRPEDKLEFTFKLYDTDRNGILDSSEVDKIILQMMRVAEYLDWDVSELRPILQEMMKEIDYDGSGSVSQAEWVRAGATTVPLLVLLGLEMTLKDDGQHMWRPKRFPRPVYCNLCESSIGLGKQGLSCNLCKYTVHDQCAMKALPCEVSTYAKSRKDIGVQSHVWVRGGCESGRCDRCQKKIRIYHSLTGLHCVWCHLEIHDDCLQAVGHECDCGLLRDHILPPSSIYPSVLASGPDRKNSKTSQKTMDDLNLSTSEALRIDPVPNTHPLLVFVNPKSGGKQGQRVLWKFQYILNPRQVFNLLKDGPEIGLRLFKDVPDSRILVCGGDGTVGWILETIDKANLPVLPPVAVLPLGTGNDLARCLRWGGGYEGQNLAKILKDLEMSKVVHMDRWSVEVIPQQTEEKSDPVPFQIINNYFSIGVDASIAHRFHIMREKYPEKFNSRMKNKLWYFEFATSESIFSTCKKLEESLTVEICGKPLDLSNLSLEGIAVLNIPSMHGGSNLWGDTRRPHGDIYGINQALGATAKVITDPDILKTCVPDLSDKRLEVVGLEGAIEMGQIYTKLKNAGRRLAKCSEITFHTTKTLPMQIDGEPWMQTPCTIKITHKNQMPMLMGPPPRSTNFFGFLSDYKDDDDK", "assay": "Human DGKα kinase activity inhibition assay (ADP-Glo)", "type": "biochemical", "conditions": "recombinant full-length human DGKα, 55 μM ATP, 7 μM 1,2-dioleoyl-sn-glycerol, read-out: IC50 values of examples in in vitro human DGKa kinase activity inhibition assays", "in_short": "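Activity was measured as ADP production, detected by luciferase luminescence after removal of unused ATP. The enzyme was baculovirus-expressed full-length human DGKα with a C-terminal FLAG tag. The substrate was 1,2-dioleoyl-sn-glycerol in detergent micelles, and compounds came from 100× DMSO solutions.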", "units": {"IC50": "nM"}, "values": [
      {"compound": "Cn1c(=O)c(C(N)=O)c(N2CCC(c3ccc4c(c3)CC(O)C4)CC2)c2ccccc21", "note": "(stereo not drawn) [Example 467, 4-[4-(2-hydroxy-2,3-dihydro-1H-inden-5-yl)piperidin-1-yl]-1-methyl-2-oxo-1,2-dihydroquinoline-3-carboxamide]", "IC50": 3.9},
      {"compound": "Cn1c(=O)c(C(N)=O)c(N2CCC(c3ccc4c(c3)C3(CCC3)C(=O)N4)CC2)c2ccccc21", "note": "[Example 469, 1-methyl-2-oxo-4-[4-(2′-oxo-1′,2′-dihydrospiro[cyclobutane-1,3′-indol]-5′-yl)piperidin-1-yl]-1,2-dihydroquinoline-3-carboxamide]", "IC50": 33},
      {"compound": "Cc1cc(C2(C)CCN(c3c(C(N)=O)c(=O)n(C)c4ccccc34)CC2)nc2ccccc12", "note": "[Example 470, 1-methyl-4-[4-methyl-4-(4-methylquinolin-2-yl)piperidin-1-yl]-2-oxo-1,2-dihydroquinoline-3-carboxamide]", "IC50": 13},
      {"compound": "Cn1ccc2c(F)cc(C3CCN(c4c(C(N)=O)c(=O)n(C)c5ccccc45)CC3)cc21", "note": "[Example 471, 4-[4-(4-fluoro-1-methyl-1H-indol-6-yl)piperidin-1-yl]-1-methyl-2-oxo-1,2-dihydroquinoline-3-carboxamide]", "IC50": 3.9},
      {"compound": "Cc1cccc(-n2ccc(C3CCN(c4c(C(N)=O)c(=O)n(C)c5ccccc45)CC3)n2)c1", "note": "[Example 472, 1-methyl-4-{4-[1-(3-methylphenyl)-1H-pyrazol-3-yl]piperidin-1-yl}-2-oxo-1,2-dihydroquinoline-3-carboxamide]", "IC50": 6.7},
      {"compound": "Cc1ccccc1-n1ccc(C2CCN(c3c(C(N)=O)c(=O)n(C)c4ccccc34)CC2)n1", "note": "[Example 473, 1-methyl-4-{4-[1-(2-methylphenyl)-1H-pyrazol-3-yl]piperidin-1-yl}-2-oxo-1,2-dihydroquinoline-3-carboxamide]", "IC50": 23},
      {"compound": "Cn1c(=O)c(C(N)=O)c(N2CCC(c3ccn(-c4cccc(Cl)c4)n3)CC2)c2ccccc21", "note": "[Example 474, 4-{4-[1-(3-chlorophenyl)-1H-pyrazol-3-yl]piperidin-1-yl}-1-methyl-2-oxo-1,2-dihydroquinoline-3-carboxamide]", "IC50": 4.6},
      {"compound": "Cn1c(=O)c(C(N)=O)c(N2CCC(c3nc(-c4cccnc4)no3)CC2)c2ccccc21", "note": "[Example 475, 1-methyl-2-oxo-4-{4-[3-(pyridin-3-yl)-1,2,4-oxadiazol-5-yl]piperidin-1-yl}-1,2-dihydroquinoline-3-carboxamide]", "IC50": 224},
      {"compound": "COc1cccc(-c2csc(C3CCN(c4c(C(N)=O)c(=O)n(C)c5ccccc45)CC3)n2)c1", "note": "[Example 476, 4-{4-[4-(3-methoxyphenyl)-1,3-thiazol-2-yl]piperidin-1-yl}-1-methyl-2-oxo-1,2-dihydroquinoline-3-carboxamide]", "IC50": 7.1},
      {"compound": "COc1ccccc1-c1csc(C2CCN(c3c(C(N)=O)c(=O)n(C)c4ccccc34)CC2)n1", "note": "[Example 477, 4-{4-[4-(2-methoxyphenyl)-1,3-thiazol-2-yl]piperidin-1-yl}-1-methyl-2-oxo-1,2-dihydroquinoline-3-carboxamide]", "IC50": 3.9},
      {"compound": "Cc1ccc(-c2csc(C3CCN(c4c(C(N)=O)c(=O)n(C)c5ccccc45)CC3)n2)cc1", "note": "[Example 478, 1-methyl-4-{4-[4-(4-methylphenyl)-1,3-thiazol-2-yl]piperidin-1-yl}-2-oxo-1,2-dihydroquinoline-3-carboxamide]", "IC50": 9.4},
      {"compound": "Cc1ccc2oc(C3CCN(c4c(C(N)=O)c(=O)n(C)c5cc(OC6CCOCC6)ccc45)CC3)nc2c1", "note": "[Example 479, 1-methyl-4-[4-(5-methyl-1,3-benzoxazol-2-yl)piperidin-1-yl]-7-[(oxan-4-yl)oxy]-2-oxo-1,2-dihydroquinoline-3-carboxamide]", "IC50": 59},
      {"compound": "COCCOc1ccc2c(N3CCC(c4nc5cc(C)ccc5o4)CC3)c(C(N)=O)c(=O)n(C)c2c1", "note": "[Example 480, 7-(2-methoxyethoxy)-1-methyl-4-[4-(5-methyl-1 3-benzoxazol-2-yl)piperidin-1-yl]-2-oxo-1,2-dihydroquinoline-3-carboxamide]", "IC50": 9.8},
      {"compound": "Cc1ccc2oc(C3CCN(c4c(C(N)=O)c(=O)n(C)c5cc(OCC6CO6)ccc45)CC3)nc2c1", "note": "(stereo not drawn) [Example 481, 1-methyl-4-[4-(5-methyl-1,3-benzoxazol-2-yl)piperidin-1-yl]-7-{[oxiran-2-yl]methoxy}-2-oxo-1,2-dihydroquinoline-3-carboxamide]", "IC50": 2},
      {"compound": "Cc1ccc2oc(C3CCN(c4c(C(N)=O)c(=O)n(C)c5cc(OC6COC6)ccc45)CC3)nc2c1", "note": "[Example 485, 1-methyl-4-[4-(5-methyl-1,3-benzoxazol-2-yl)piperidin-1-yl]-7-[(oxetan-3-yl)oxy]-2-oxo-1,2-dihydroquinoline-3-carboxamide]", "IC50": 2},
      {"compound": "COc1ccc2oc(C3CCN(c4c(C(N)=O)c(=O)n(C)c5ccccc45)CC3)nc2c1", "note": "[Example 486, 4-[4-(5-methoxy-1,3-benzoxazol-2-yl)piperidin-1-yl]-1-methyl-2-oxo-1,2-dihydroquinoline-3-carboxamide]", "IC50": 5.6},
      {"compound": "Cn1c(=O)c(C(N)=O)c(N2CCC(c3nc4cc(OCC5CCCO5)ccc4o3)CC2)c2ccccc21", "note": "(stereo not drawn) [Example 487, 1-methyl-2-oxo-4-(4-{5-[(oxolan-2-yl)methoxy]-1,3-benzoxazol-2-yl}piperidin-1-yl)-1,2-dihydroquinoline-3-carboxamide]", "IC50": 13},
      {"compound": "Cn1c(=O)c(C(N)=O)c(N2CCC(F)(c3nc4ccccc4o3)CC2)c2ccccc21", "note": "[Example 488, 4-[4-(1,3-benzoxazol-2-yl)-4-fluoropiperidin-1-yl]-1-methyl-2-oxo-1,2-dihydroquinoline-3-carboxamide]", "IC50": 1.6},
      {"compound": "COC1(c2nc3ccccc3o2)CCN(c2c(C(N)=O)c(=O)n(C)c3ccccc23)CC1", "note": "[Example 489, 4-[4-(1,3-benzoxazol-2-yl)-4-methoxypiperidin-1-yl]-1-methyl-2-oxo-1,2-dihydroquinoline-3-carboxamide]", "IC50": 7.5},
      {"compound": "COCc1ccc2oc(C3(C)CCN(c4c(C(N)=O)c(=O)n(C)c5ccccc45)CC3)nc2c1", "note": "[Example 490, 4-{4-[5-(methoxymethyl)-1,3-benzoxazol-2-yl]-4-methylpiperidin-1-yl}-1-methyl-2-oxo-1,2-dihydroquinoline-3-carboxamide]", "IC50": 7.8},
      {"compound": "COCc1ccc2nc(C3(C)CCN(c4c(C(N)=O)c(=O)n(C)c5ccccc45)CC3)oc2c1", "note": "[Example 491, 4-{4-[6-(methoxymethyl)-1,3-benzoxazol-2-yl]-4-methylpiperidin-1-yl}-1-methyl-2-oxo-1,2-dihydroquinoline-3-carboxamide]", "IC50": 9.1},
      {"compound": "Cc1ccc2oc(C3CCN(c4c(C(N)=O)c(=O)n(C)c5ccc(Br)cc45)CC3)nc2c1", "note": "[Example 492, 6-bromo-1-methyl-4-[4-(5-methyl-1,3-benzoxazol-2-yl)piperidin-1-yl]-2-oxo-1,2-dihydroquinoline-3-carboxamide]", "IC50": 1.5},
      {"compound": "Cc1ccc2oc(C3CCN(c4c(C(N)=O)c(=O)n(C)c5c(Br)cccc45)CC3)nc2c1", "note": "[Example 493, 8-bromo-1-methyl-4-[4-(5-methyl-1,3-benzoxazol-2-yl)piperidin-1-yl]-2-oxo-1,2-dihydroquinoline-3-carboxamide]", "IC50": 80},
      {"compound": "Cc1ccc2oc(C3CCN(c4c(C(N)=O)c(=O)n(C)c5cc(N(C)C6COC6)ccc45)CC3)nc2c1", "note": "[Example 494, 1-methyl-4-[4-(5-methyl-1,3-benzoxazol-2-yl)piperidin-1-yl]-7-[methyl(oxetan-3-yl)amino]-2-oxo-1,2-dihydroquinoline-3-carboxamide]", "IC50": 6.2}
    ]}
  ]
}
